Earlier results on one compound are cited in patent US20080153927A1, “ALPHA-2B RECEPTOR AGONIST AND RELAXANT COMPOSITIONS FOR TREATING GASTROINTESTINAL MOTILITY DISORDERS” (Allergan, Inc., priority 2006, published 2008).

Structures are written as SMILES.

As to `CN(C)[C@@H](CCOc1cccc2ccccc12)c1ccccc1` [Dapoxetine], the initial half-life (in vivo) is 1.2 h. Also, where the note is “serum”, the “time to maximum serum concentration” value is recorded as “about 1 hour”.
